Test results: ChEMBL document CHEMBL3600294, “Synthesis, molecular docking and biological evaluation of 3-arylfuran-2(5H)-ones as anti-gastric ulcer agent” (Bioorg Med Chem, 2015)
≈ marks a conversion by molar mass, not a printed value.

System: not listed separately
Experiment: Antioxidant activity assessed as DPPH radical scavenging activity incubated for 30 mins
Conditions: not given

IC50 [µM]	Compound
12.1	O=C1O[C@H]([C@@H](O)CO)C(O)=C1O [ASCORBIC ACID]

Same assay, conditions: DPPH radical solution

Compound	IC50 [µM]
O=C1OCC(O)=C1c1ccccc1	13.5
O=C1OCC(O)=C1c1ccccc1F	> 100
O=C1OCC(O)=C1c1ccccc1Cl	> 100
Cc1ccccc1C1=C(O)COC1=O	45.6
O=C1OCC(O)=C1c1ccccc1OCc1ccccc1	> 100
O=C1OCC(O)=C1c1cccc(F)c1	23.5
O=C1OCC(O)=C1c1cccc(Cl)c1	16.5
O=C1OCC(O)=C1c1cccc(Br)c1	11.2
Cc1cccc(C2=C(O)COC2=O)c1	8.2
O=C1OCC(O)=C1c1cccc(C(F)(F)F)c1	110
O=C1OCC(O)=C1c1cccc(OCc2ccccc2)c1	31.5
O=C1OCC(O)=C1c1ccc(F)cc1	> 100
O=C1OCC(O)=C1c1ccc(Cl)cc1	18.5
O=C1OCC(O)=C1c1ccc(Br)cc1	16.8
Cc1ccc(C2=C(O)COC2=O)cc1	12.3
O=C1OCC(O)=C1c1ccc(OCc2ccccc2)cc1	34
O=C1OCC(O)=C1c1ccc(Cl)c(Cl)c1	28.7
COc1ccc(C2=C(O)COC2=O)cc1OC	20.4
CCOc1ccc(C2=C(O)COC2=O)cc1OCC	23.4
O=C1OCC(O)=C1c1ccc(Cl)cc1Cl	> 100

Molecular target: Urease subunit alpha/Urease subunit beta (Helicobacter pylori (strain ATCC 700392 / 26695) (Campylobacterpylori), UniProt P69996)
Experiment: Inhibition of Helicobacter pylori urease assessed as ammonia production preincubated for 1.5 hrs by indophenol method
Conditions: not given

Chain of Urease subunit alpha/Urease subunit beta (P69996 whole entry): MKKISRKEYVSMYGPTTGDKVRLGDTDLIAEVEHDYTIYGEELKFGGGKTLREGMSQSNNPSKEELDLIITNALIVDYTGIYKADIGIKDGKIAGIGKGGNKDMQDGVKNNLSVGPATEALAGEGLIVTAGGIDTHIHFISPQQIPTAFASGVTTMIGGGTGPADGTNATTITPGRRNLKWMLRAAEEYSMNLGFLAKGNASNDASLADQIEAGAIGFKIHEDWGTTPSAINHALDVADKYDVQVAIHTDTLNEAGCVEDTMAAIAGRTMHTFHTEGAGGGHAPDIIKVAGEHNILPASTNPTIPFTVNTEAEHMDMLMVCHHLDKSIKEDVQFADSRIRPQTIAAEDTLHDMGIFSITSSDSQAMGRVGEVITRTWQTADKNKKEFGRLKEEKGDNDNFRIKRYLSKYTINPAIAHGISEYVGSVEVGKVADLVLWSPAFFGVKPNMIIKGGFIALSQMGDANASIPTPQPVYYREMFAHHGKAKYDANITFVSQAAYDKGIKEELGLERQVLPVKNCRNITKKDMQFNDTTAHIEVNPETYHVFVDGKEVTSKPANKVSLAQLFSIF
Chain of Urease subunit alpha/Urease subunit beta (P14916 whole entry, further chain): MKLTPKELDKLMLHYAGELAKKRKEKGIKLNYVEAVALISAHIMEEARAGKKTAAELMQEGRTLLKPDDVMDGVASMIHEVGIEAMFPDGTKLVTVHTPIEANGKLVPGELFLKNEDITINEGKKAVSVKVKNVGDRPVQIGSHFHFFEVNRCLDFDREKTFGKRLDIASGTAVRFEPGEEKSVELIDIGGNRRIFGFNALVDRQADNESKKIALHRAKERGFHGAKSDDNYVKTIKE

Compound	IC50 [µM]
O=C1OCC(O)=C1c1ccccc1	89
O=C1OCC(O)=C1c1ccccc1F	75
O=C1OCC(O)=C1c1ccccc1Cl	68
Cc1ccccc1C1=C(O)COC1=O	65
O=C1OCC(O)=C1c1ccccc1OCc1ccccc1	50
O=C1OCC(O)=C1c1cccc(F)c1	62
O=C1OCC(O)=C1c1cccc(Cl)c1	45.3
O=C1OCC(O)=C1c1cccc(Br)c1	81.8
Cc1cccc(C2=C(O)COC2=O)c1	31.1
O=C1OCC(O)=C1c1cccc(C(F)(F)F)c1	64.4
O=C1OCC(O)=C1c1cccc(OCc2ccccc2)c1	77.5
O=C1OCC(O)=C1c1ccc(F)cc1	40.6
O=C1OCC(O)=C1c1ccc(Cl)cc1	> 100
O=C1OCC(O)=C1c1ccc(Br)cc1	> 100
Cc1ccc(C2=C(O)COC2=O)cc1	> 100
O=C1OCC(O)=C1c1ccc(OCc2ccccc2)cc1	10.5
O=C1OCC(O)=C1c1ccc(Cl)c(Cl)c1	> 100
COc1ccc(C2=C(O)COC2=O)cc1OC	36.5
CCOc1ccc(C2=C(O)COC2=O)cc1OCC	91.7
O=C1OCC(O)=C1c1ccc(Cl)cc1Cl	> 100

System: Helicobacter pylori
Experiment: Antibacterial activity against Helicobacter pylori ATCC 43504 after 24 hrs by microdilution broth method
Format: functional
Conditions: ATCC 43504, 24 h

Compound	MIC50 [µg/mL]
O=C1OCC(O)=C1c1ccccc1	4.7 (≈ 26.7 µM)
O=C1OCC(O)=C1c1ccccc1F	2.7 (≈ 13.9 µM)
O=C1OCC(O)=C1c1ccccc1Cl	36.7 (≈ 174 µM)
Cc1ccccc1C1=C(O)COC1=O	1.5 (≈ 7.89 µM)
O=C1OCC(O)=C1c1ccccc1OCc1ccccc1	13.8 (≈ 48.9 µM)
O=C1OCC(O)=C1c1cccc(F)c1	> 100
O=C1OCC(O)=C1c1cccc(Cl)c1	36.7 (≈ 174 µM)
O=C1OCC(O)=C1c1cccc(Br)c1	24.5 (≈ 96.1 µM)
Cc1cccc(C2=C(O)COC2=O)c1	2.6 (≈ 13.7 µM)
O=C1OCC(O)=C1c1cccc(C(F)(F)F)c1	28.2 (≈ 115 µM)
O=C1OCC(O)=C1c1cccc(OCc2ccccc2)c1	31.7 (≈ 112 µM)
O=C1OCC(O)=C1c1ccc(F)cc1	27.7 (≈ 143 µM)
O=C1OCC(O)=C1c1ccc(Cl)cc1	49.3 (≈ 234 µM)
O=C1OCC(O)=C1c1ccc(Br)cc1	61.3 (≈ 240 µM)
Cc1ccc(C2=C(O)COC2=O)cc1	15.2 (≈ 79.9 µM)
O=C1OCC(O)=C1c1ccc(OCc2ccccc2)cc1	52.1 (≈ 185 µM)
O=C1OCC(O)=C1c1ccc(Cl)c(Cl)c1	> 100
COc1ccc(C2=C(O)COC2=O)cc1OC	46.2 (≈ 196 µM)
CCOc1ccc(C2=C(O)COC2=O)cc1OCC	72.5 (≈ 274 µM)
O=C1OCC(O)=C1c1ccc(Cl)cc1Cl	> 100
CC1(C)S[C@@H]2[C@H](NC(=O)[C@H](N)c3ccc(O)cc3)C(=O)N2[C@H]1C(=O)O [AMOXICILLIN]	0.8 (≈ 2.19 µM)

System: not listed separately
Experiment: Inhibition of Staphylococcus aureus TyrRS expressed in Escherichia coli using [ring-3,5-3H]-tyrosine preincubated for 10 mins assessed as aminoacylation by liquid scintillation counting
Conditions: not given

Compound	IC50 [µM]
O=C1OCC(OCCN2CCOCC2)=C1c1ccc(O)cc1	0.1
O=C1OCC(O)=C1c1ccccc1	5.6
O=C1OCC(O)=C1c1ccccc1F	1.9
Cc1ccccc1C1=C(O)COC1=O	0.6
O=C1OCC(O)=C1c1ccccc1OCc1ccccc1	2.5
O=C1OCC(O)=C1c1cccc(F)c1	27.8
O=C1OCC(O)=C1c1cccc(Cl)c1	15.4
O=C1OCC(O)=C1c1cccc(Br)c1	13.1
Cc1cccc(C2=C(O)COC2=O)c1	1.1
O=C1OCC(O)=C1c1cccc(C(F)(F)F)c1	17.5
Cc1ccc(C2=C(O)COC2=O)cc1	8.6
O=C1OCC(O)=C1c1ccc(OCc2ccccc2)cc1	30
